The IC50 is the point on the concentration scale where inhibition reaches its midpoint. Higher therefore signals a need for much substance.

The record followed here is patent publication US20110046127A1, “Imidazopyridazines for Use as Protein Kinase Inhibitors” (priority 2007, published 2011).

The subject of this assay is T1, PIM-1 or PIM-2.
T1 construct: fused on or other part: C-terminal histidine tag (PIM-1 enzyme); N-terminal histidine tag (PIM-2 enzyme)
Briefly: PIM-1 / PIM-2 biochemical assay (ADP Hunter assay kit). As to conditions: tested in either the PIM-1 or the PIM-2 biochemical assay (as appropriate); ATP 100 μM. Also on record: species or system human.
Text: The biochemical assay to measure PIM-1 activity relies on the ADP Hunter assay kit (DiscoveRx Corp., Cat. # 90-0077), that determines the amount of ADP as direct product of the kinase enzyme activity.
The enzyme has been expressed and purified in-house as a recombinant human protein with a C-terminal histidine tag. The protein is active and stable.
(§1) Assay conditions were as indicated by the kit manufacturers with the following adaptations for the kinase activity step: • Kinase assay buffer and assay volume stay as recommended (15 mM HEPES, pH 7.4, 20 mM NaCl, 1 mM EGTA, 0.02% Tween 20, 10 mM MgCl2 and 0.1 mg/ml bovine γ-globulins/75 μl assay volume) • Incubation time and temperature: 60 min at 30° C. • PIM-1 concentration: 50 pg/μl • ATP concentration: 100 μM • PIM-1 substrate peptide: PIMtide (ARKRRRHPSGPPTA) • Peptide concentration: 60 μM • Positive control for kinase activity inhibition: 1-10 μM Staurosporine • DMSO concentration have to stay below 2% during the kinase reaction
Assays were performed in either 96 or 384-well plates. The final outcome of the coupled reactions provided by the kit is the release of the fluorescent product Resorufin and has been measured with a multilabel HTS counter VICTOR V (PerkinElmer) using an excitation filter at 544 nm and an emission filter at 580 nm.
The biochemical assay to measure PIM-2 activity relies on the ADP Hunter assay kit (DiscoveRx Corp., Cat. # 90-0077), that determines the amount of ADP as direct product of the kinase enzyme activity.
The enzyme has been expressed and purified in-house as a recombinant human protein with a N-terminal histidine tag. The protein is active and stable.
as §1, with “mg/ml bovine γ-globulins/20 μl assay” for “mg/ml bovine γ-globulins/75 μl assay”, “and temperature: 30 min at” for “and temperature: 60 min at”, “C. • PIM-2 concentration: 350” for “C. • PIM-1 concentration: 50”, “PIM-2 concentration: 350 pg/μl •” for “PIM-1 concentration: 50 pg/μl •”, “Peptide concentration: 100 μM •” for “Peptide concentration: 60 μM •”

Compound `Cc1cc2ncc(C(=O)Nc3ccccc3)n2nc1NCc1cccc(F)c1` [Example 61, 6-(3-Fluoro-benzylamino)-7-methyl-imidazo[1,2-b]pyridazine-3-carboxylic acid phenylamide] yielded a half-maximal inhibitory concentration (IC50) of 60 nM.
The compound `O=C(Nc1ccccc1)c1cnc2ccc(OCc3ccccc3)nn12` [Example 34, 6-Benzyloxy-imidazo[1,2-b]pyridazine-3-carboxylic acid phenylamide] displayed an IC50 of 11000 nM.
For `COCCNC(=O)c1cnc2ccc(NCc3ccc(Cl)c(Cl)c3)nn12` [Example 19, 6-(3,4-Dichloro-benzylamino)-imidazo[1,2-b]pyridazine-3-carboxylic acid (2-methoxy-ethyl)-amide], the IC50 amounted to 4660 nM. This IC50 is about 2.4-fold lower than that of the compound before.
As for `O=C(Nc1ccccc1)c1cnc2ccc(-c3ccoc3)nn12` [Example 47, 6-Furan-3-yl-imidazo[1,2-b]pyridazine-3-carboxylic acid phenylamide], the figure is 470 nM; as for `CCS(=O)(=O)Nc1cnc2ccc(-c3ccccc3)nn12` [Example 85, Ethanesulfonic acid (6-phenyl-imidazo[1,2-b]pyridazin-3-yl)-amide], 17400 nM.
For `O=C(Nc1ccccc1)c1cnc2ccc(NCc3ccc(Cl)c(Cl)c3)nn12` [Example 18, 6-(3,4-Dichloro-benzylamino)-imidazo[1,2-b]pyridazine-3-carboxylic acid phenyl-amide], the IC50 is 60 nM.
